These results are taken from patent publication US4262008A, “2,4-Disubstituted 5-oxo-5H-hexahydrofuro[3,2b]pyrroles” (Beecham Group Limited, priority 1978, dated 1981).

Where two headings read alike, the source gives them in different places.

Assay [1] has as its system platelet aggregation in response to A.D.P. (human platelet-rich plasma). In words: Platelet aggregation in vitro, response to A.D.P. In kind it is cell-based. Particulars: human P.R.P., 37° C., 3 min preincubation, 50% inhibition of first-phase aggregation response, read-out: IC50 vs. ADP. As to the method:
(§1) Human blood (20 ml) is drawn into a plastic syringe and immediately anti-coagulated by mixing with 0.1 volumes of 3.8% (w/v) trisodium citrate dihydrate. Platelet-rich plasma (P.R.P.) is prepared by centrifuging the anticoagulated blood of 180 g, for 12 minutes, at room temperature. Collagen "Collagen-reagent Horm" (Hormon-Chemie Munchem, Postfach 101, Germany) is dilated as necessary with 0.9% (w/v) saline and kept on ice. Adenosine 5'-diphosphate (A.D.P.) (Grade 1: sodium salt from equine muscle, Sigma.) is diluted, as necessary with 0.9% saline, from a 10 mM stock solution, pH 6.8 kept at -20° C. The compounds are dissolved freshly to 40 mM in dimethylformamide. P.R.P. is mixed with 0.1 volumes saline and 0.005 volumes compound on dimethylformamide (control) and incubated at 37° C. for 3 minutes before the addition of collagen.
(§2) Platelet aggregation in response to collagen and A.D.P. is measured photometrically (Born G.V.R., 1962, Nature, 194 927) in a Bryston aggregometer coupled to a Vitatron linear pen recorder. The concentration of collagen producing a just-maximal change in light transmittance and the concentration of A.D.P. to produce only a first-phase aggregation response are established in each control P.R.P. The concentration of compounds to inhibit these control response by 50% in each case are determined.

Assay [2] deals with bronchoconstriction induced by an histamine aerosol. In words: Protection of conscious guinea pigs against bronchoconstriction induced by histamine aerosol (Herxheimer test). Particulars: aerosol generated from a 100 μg/ml solution. In kind it is in vivo, guinea pig. As to the method:
3. The compounds were also examined for their ability to protect conscious guinea pigs against bronchoconstriction induced by an histamine aerosol (Herxheimer test). In these experiments the compounds were administered by aerosol administration.

For assay [3], the system named is 5-hydroxytryptamine induced bronchoconstriction. In words: Inhibition of 5-hydroxytryptamine induced bronchoconstriction in anaesthetised, artificially respired guinea pig (Konzett-Rossler preparation). In kind it is in vivo. As to the method:
1. The compounds were examined for their ability to inhibit 5-hydroxytryptamine induced bronchoconstriction in the anaesthetised, artificially respired guinea pig (Konzett-Rossler preparation). The compounds were administered intravenously.

In assay [4] the test system is platelet aggregation in response to collagen (human platelet-rich plasma). Description: Platelet aggregation in vitro, response to collagen. It counts as cell-based. Particulars: human P.R.P., 37° C., 3 min preincubation, 50% inhibition of just-maximal collagen response. The protocol:
as §1, §2

Assay [5] relates to histamine induced changes in pulmonary resistance and lung compliance. Description: Inhibition of histamine induced changes in pulmonary resistance and lung compliance in anaesthetised spontaneously respiring guinea pig. In kind it is in vivo. Particulars: Cavia porcellus, iv. The protocol:
2. The compounds were tested for their ability to inhibit histamine induced changes in pulmonary resistance and lung compliance in the anaesthetised spontaneously respiring guinea pig. The compounds were administered intravenously.

`CCCCCCC(C)(O)CCN1C(=O)CC2OC(CCCCC(=O)OCC)CC21` (stereo not shown) [Example 1, 2-(4'-Ethoxycarbonyl-n-butyl)-4-(3"-hydroxy-3"-methyl-n-nonyl)-5-oxo-5H-hexahydro-furo[3,2-b]pyrrole]: the IC50 in assay [1] (Homo sapiens, Platelet) was 35 µM; in assay [4] (Homo sapiens, Platelet), 8.8 µM. Moreover, the “protection against histamine challenge” value in assay [2] is on record as “highly significant protection”. For the same molecule, the ED50 amounted to 0.131 mg/kg in assay [3] (Cavia porcellus, iv, mean of 3 experiments, read-out: ED 50 against 5-hydroxytryptamine induced bronchoconstriction); 0.046 mg/kg in assay [5] (lung compliance, read-out: ED 50 against compliance changes); 0.033 mg/kg in assay [5] (pulmonary resistance, read-out: ED 50 against resistance changes). In addition, the “ED 50 range against 5-hydroxytryptamine induced bronchoconstriction” value in assay [3] (i.v., range of 3 experiments) lay within 0.115 to 0.15 mg/kg.
Regarding `CCOC(=O)CCCCCC1CC2C(CC(=O)N2CCC(C)(O)C2CCCCC2)O1` (stereo not shown) [Example 6, 2-(5'-ethoxycarbonyl-n-pentyl)-4-(3"-hydroxy-3"-cyclohexyl-n-butyl)-5-oxo-5H-hexahydro-furo[3,2b]pyrrole], the IC50 in assay [1] (Homo sapiens, Platelet) was 2.5 µM; in assay [4] (Homo sapiens, Platelet) it was 1.2 µM.
For `CCCCCCC(O)CCN1C(=O)CC2OC(CCCCC(=O)OCC)CC21` (single isomer, unassigned) [Example 4 (Lower Rf epimer), 2-(4'-ethoxycarbonyl-n-butyl)-4-(3"-hydroxy-n-nonyl)-5-oxo-5H-hexahydrofuro[3,2b]pyrrole], the figures for the IC50 in assay [1] and in assay [4] were 120 µM and 28 µM, respectively.
`CCOC(=O)CCCCC1CC2C(CC(=O)N2CCC(C)(O)CC2CCCCC2)O1` (stereo not shown) [Example 5, 2-(4'-ethoxycarbonyl-n-butyl)-4-(3"-hydroxy-3"-hydroxy-3"-methyl-4"-cyclohexyl-n-butyl)5-oxo-5H-hexahydro-furo [3-2b]pyrrole]: the IC50 in assay [1] (Homo sapiens, Platelet) came out at 100 µM; in assay [4] (Homo sapiens, Platelet), 17 µM.
In the case of `CCCCCC(O)CCN1C(=O)CC2OC(CCCCC(=O)OC)CC21` (stereo not shown) [Example 3, 4-(3"-Hydroxy-n-octyl)-2-(4'-methoxycarbonyl-n-butyl)-5-oxo-5H-hexahydrofuro[3,2-b]pyrrole], the IC50 is 4.9 µM in assay [1] (Homo sapiens, Platelet) and 1.7 µM in assay [4] (Homo sapiens, Platelet).
For `CCOC(=O)CCCCC1CC2C(CC(=O)N2CCC(C)(O)C2CCCCC2)O1` (stereo not shown) [Example 7, 2-(5'-ethoxycarbonyl-n-butyl)-4-(3"-hydroxy-3"-cyclohexyl-n-butyl)-5-oxo-5H-hexahydro-furo[3,2b]pyrrole] the same measures were 0.54 µM and 0.26 µM.
As for `CCCCCCC(O)CCN1C(=O)CC2OC(CCCCC(=O)OCC)CC21` (single isomer, unassigned) [Example 4 (Higher Rf epimer), 2-(4'-ethoxycarbonyl-n-butyl)-4-(3"-hydroxy-n-nonyl)-5-oxo-5H-hexahydrofuro[3,2b]pyrrole], the IC50 in assay [1] worked out at 7.4 µM; in assay [4] it was 2.9 µM.
